The values that follow are results of earlier work, collected in patent US20070298029A1, “Treatment of Neurodegenerative Diseases by the Use of Degs Inhibitors” (priority 2004, published 2007).

For the data set, the target named is T1, dihydroceramide desaturase (Rattus norvegicus, UniProt Q5XIF5).
T1 sequence (Q5XIF5 1-323): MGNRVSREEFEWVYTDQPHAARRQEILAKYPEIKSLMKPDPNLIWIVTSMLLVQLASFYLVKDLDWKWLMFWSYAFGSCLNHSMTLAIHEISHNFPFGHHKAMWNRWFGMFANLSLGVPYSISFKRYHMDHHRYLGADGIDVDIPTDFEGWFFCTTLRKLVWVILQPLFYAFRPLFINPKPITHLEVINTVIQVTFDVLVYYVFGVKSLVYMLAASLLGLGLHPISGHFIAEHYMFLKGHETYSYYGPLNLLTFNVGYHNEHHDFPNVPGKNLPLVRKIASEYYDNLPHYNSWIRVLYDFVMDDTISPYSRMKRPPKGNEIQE
As to conditions: competitive inhibitor.

Structures are written as SMILES.

For `CCCCCCCCCCCCCC1=C([C@H](O)[C@@H](CO)NC(=O)CCCCCCC)C1` [GT11, N-[(1R,2S)-2-hydroxy-1-hydroxymethyl-2-(2-tridecyl-1-cyclopropenyl)ethyl]octanamide], the Ki (commonly a measure of affinity in units of concentration, obtained from inhibition or displacement) was 6 µM.
